For orientation: IC50 means the concentration that inhibits the measured activity by half. High values mean a need for much substance, low ones inhibition by little substance.

Our source for the IC50 values is US20240101571A1, “NLRP3 MODULATORS” (Zomagen Biosciences Ltd, priority 2020, published 2024).

In experiment [1] the test system is IL-1b. Briefly: Mouse BMDM IL-1b Assay. The class given is cell-based. The following applies: Macrophage, C57BL6 bone marrow derived macrophages, 200 ng/mL LPS 3 h, compound 30 min, 5 mM ATP 45 min, IL-1b ELISA of supernatant. As for the experimental part:
Mouse bone marrow cells from C57BL6 tibia and femur were culture in complete Isocov's Media supplemented with 20 ng/mL MCSF (BMDM media) at a density of 50 million cells/15 cm Petri dish. Fresh media was changed every 3 days, and bone marrow derived macrophages were collected, washed, and counted on day 7. Cells were seeded into 96 well plates at a density of 5×10^4 cells per well in 100 uL of BMDM media and cultured overnight. The cells were stimulated at 37° C. with 200 ng/mL Ultrapure LPS-B5 for 3 hours before pre-diluted compounds were added. 30 minutes after compound addition, 5 mM ATP was added for the secondary stimulation for 45 minutes. After stimulation, the plates were briefly spun down, and 50 uL of supernatant was harvested from each well. ELISA for mouse IL-1b was performed with 1:10 and 1:100 diluted supernatant using pre-coated kits. IL-1b concentrations were calculated based on pre-titrated standards, and compound inhibition IC50 is generated using the Levenberg Marquardt damped lease-square method.

In experiment [2] the test system is IL-1b. Description: Human Whole Blood (HWB) IL-1b Assay. Type of experiment: cell-based. To be noted: compound 0.5 h, 100 ng/mL LPS 3.5 h, 5 mM ATP 45 min, IL-1b ELISA of supernatant. As for the experimental part:
Assay run as in Tran et al. “Whole blood assay as a model for in vitro evaluation of inflammasome activation and subsequent caspase-mediated interleukin-1 beta release” PLoSONE 14(4): e0214999.https://doi.org/10.1371/journal.pone.0214999. Namely, freshly drawn human whole blood with anti-coagulant was incubated with test compounds at various titration points for 0.5 hrs at 37° C. in 5% CO2. The cells were subsequently primed with 100 ng/mL LPS for 3.5 hours at 37° C. followed by stimulation with 5 mM ATP for an additional 45 minutes. The supernatant was harvested and analyzed for human IL-1b concentration using commercially available ELISA kits.
A general note: ELISA stands for enzyme-linked immunosorbent assay.

For the compound `O=C(Nc1c2c(cc3c1CCC3)CCC2)NS(=O)(=O)c1cc2c(o1)C1CCN(CC1)C2` [Compound 13, sodium ((1,2,3,5,6,7-hexahydro-s-indacen-4-yl)carbamoyl)((4,6,7,8-tetrahydro-5,8-ethanofuro[3,2-c]azepin-2-yl)sulfonyl)amide], the figures for the IC50 in the experiment on IL-1b [1] and in the experiment with IL-1b [2] were less than 0.1 µM and less than 1 µM, respectively.
On to `O=C(Nc1c2c(cc3c1CCC3)CCC2)NS(=O)(=O)c1cc2c(s1)C1CCN(CC1)C2` [Compound 25], for which the IC50 with IL-1b [2] was less than 1 µM.
For the compound `O=C(Nc1c2c(cc3c1CCC3)CCC2)NS(=O)(=O)c1cc2c(s1)C1CCN(CC1)C2` [Compound 26, sodium ((1,2,3,5,6,7-hexahydro-s-indacen-4-yl)carbamoyl)((4,6,7,8-tetrahydro-5,8-ethanothieno[3,2-c]azepin-2-yl)sulfonyl)amide], in the experiment on IL-1b [1], the IC50 was less than 0.1 µM.
For `COc1cc(-c2ccc3c(c2NC(=O)NS(=O)(=O)c2cc4c(o2)C2CCN(CC2)C4)CCC3)ccn1` [Compound 27, N-((5-(2-methoxypyridin-4-yl)-2,3-dihydro-1H-inden-4-yl)carbamoyl)-4,6,7,8-tetrahydro-5,8-ethanofuro[3,2-c]azepine-2-sulfonamide], in the experiment on IL-1b [2], the concentration for half-maximal inhibition (IC50) is less than 1 µM.
The same measure, in the same setting: the result for `COc1cc(-c2ccc3c(c2NC(=O)NS(=O)(=O)c2cc4c(s2)C2CCN(CC2)C4)CCC3)ccn1` [Compound 28, N-((5-(2-methoxypyridin-4-yl)-2,3-dihydro-1H-inden-4-yl)carbamoyl)-4,6,7,8-tetrahydro-5,8-ethanothieno[3,2-c]azepine-2-sulfonamide] reads less than 1 µM; that for `CC(C)c1ccc2c(c1NC(=O)NS(=O)(=O)c1cc3c(o1)C1CCN(CC1)C3)CCC2` [Compound 29, N-((5-isopropyl-2,3-dihydro-1H-inden-4-yl)carbamoyl)-4,6,7,8-tetrahydro-5,8-ethanofuro[3,2-c]azepine-2-sulfonamide], less than 1 µM; that for `CC(C)c1cc(F)c2c(c1NC(=O)NS(=O)(=O)c1cc3c(o1)C1CCN(CC1)C3)CCC2` [Compound 30, N-((7-fluoro-5-isopropyl-2,3-dihydro-1H-inden-4-yl)carbamoyl)-4,6,7,8-tetrahydro-5,8-ethanofuro[3,2-c]azepine-2-sulfonamide], less than 1 µM.
Turning to `CC(C)c1ccc(F)c(C(C)C)c1NC(=O)NS(=O)(=O)c1cc2c(o1)C1CCN(CC1)C2` [Compound 31, N-((3-fluoro-2,6-diisopropylphenyl)carbamoyl)-4,6,7,8-tetrahydro-5,8-ethanofuro[3,2-c]azepine-2-sulfonamide], in the experiment on IL-1b [2], the IC50 was less than 1 µM.
With `O=C(Nc1c2c(c(F)c3c1CCC3)CCC2)NS(=O)(=O)c1cc2c(o1)C1CCN(CC1)C2` [Compound 32, N-((8-fluoro-1,2,3,5,6,7-hexahydro-s-indacen-4-yl)carbamoyl)-4,6,7,8-tetrahydro-5,8-ethanofuro[3,2-c]azepine-2-sulfonamide], the concentration for half-maximal inhibition (IC50) in the experiment with IL-1b [2] is less than 1 µM.
Same read-out and setting: the result for `N#Cc1c2c(c(NC(=O)NS(=O)(=O)c3cc4c(o3)C3CCN(CC3)C4)c3c1CCC3)CCC2` [Compound 33, N-((8-cyano-1,2,3,5,6,7-hexahydro-s-indacen-4-yl)carbamoyl)-4,6,7,8-tetrahydro-5,8-ethanofuro[3,2-c]azepine-2-sulfonamide] reads 1 to 10 µM; that for `CC(C)c1cc(F)cc(C(C)C)c1NC(=O)NS(=O)(=O)c1cc2c(o1)C1CCN(CC1)C2` [Compound 34, N-((4-fluoro-2,6-diisopropylphenyl)carbamoyl)-4,6,7,8-tetrahydro-5,8-ethanofuro[3,2-c]azepine-2-sulfonamide], 1 to 10 µM; that for `CC(C)c1c(F)c(Cl)c(F)c(C(C)C)c1NC(=O)NS(=O)(=O)c1cc2c(o1)C1CCN(CC1)C2` [Compound 35, N-((4-chloro-3,5-difluoro-2,6-diisopropylphenyl)carbamoyl)-4,6,7,8-tetrahydro-5,8-ethanofuro[3,2-c]azepine-2-sulfonamide], less than 1 µM.
For `CC(C)c1c(F)cc(F)c(C(C)C)c1NC(=O)NS(=O)(=O)c1cc2c(o1)C1CCN(CC1)C2` [Compound 36, N-((3,5-difluoro-2,6-diisopropylphenyl)carbamoyl)-4,6,7,8-tetrahydro-5,8-ethanofuro[3,2-c]azepine-2-sulfonamide], in the experiment on IL-1b [2], the IC50 fell in the range of 1 to 10 µM.
The same measure, in the same setting: the result for `O=C(Nc1c(C2CCOCC2)ccc2c1CCC2)NS(=O)(=O)c1cc2c(o1)C1CCN(CC1)C2` [Compound 37, N-((5-(tetrahydro-2H-pyran-4-yl)-2,3-dihydro-1H-inden-4-yl)carbamoyl)-4,6,7,8-tetrahydro-5,8-ethanofuro[3,2-c]azepine-2-sulfonamide] reads 1 to 10 µM; that for `O=C(Nc1c(C2CC2)ccc2c1CCC2)NS(=O)(=O)c1cc2c(o1)C1CCN(CC1)C2` [Compound 38, N-((5-cyclopropyl-2,3-dihydro-1H-inden-4-yl)carbamoyl)-4,6,7,8-tetrahydro-5,8-ethanofuro[3,2-c]azepine-2-sulfonamide], less than 1 µM; that for `O=C(Nc1c(C2CCCC2)ccc2c1CCC2)NS(=O)(=O)c1cc2c(o1)C1CCN(CC1)C2` [Compound 39, N-((5-cyclopentyl-2,3-dihydro-1H-inden-4-yl)carbamoyl)-4,6,7,8-tetrahydro-5,8-ethanofuro[3,2-c]azepine-2-sulfonamide], 1 to 10 µM.
The same measure, in the same setting: the result for `O=C(Nc1c2c(cc3c1CCO3)CCC2)NS(=O)(=O)c1cc2c(o1)C1CCN(CC1)C2` [Compound 40, N-((3,5,6,7-tetrahydro-2H-indeno[5,6-b]furan-4-yl)carbamoyl)-4,6,7,8-tetrahydro-5,8-ethanofuro[3,2-c]azepine-2-sulfonamide] reads less than 1 µM; that for `O=C(Nc1c(C(F)(F)F)ccc2c1CCC2)NS(=O)(=O)c1cc2c(o1)C1CCN(CC1)C2` [Compound 41, N-((5-(trifluoromethyl)-2,3-dihydro-1H-inden-4-yl)carbamoyl)-4,6,7,8-tetrahydro-5,8-ethanofuro[3,2-c]azepine-2-sulfonamide], less than 1 µM.
Same read-out and setting: the result for `O=C(Nc1c(C2CCC2)ccc2c1CCC2)NS(=O)(=O)c1cc2c(o1)C1CCN(CC1)C2` [Compound 42, N-((5-cyclobuty1-2,3-dihydro-1H-inden-4-yl)carbamoyl)-4,6,7,8-tetrahydro-5,8-ethanofuro[3,2-c]azepine-2-sulfonamide] reads 1 to 10 µM; that for `O=C(Nc1c(C2=CCC2)ccc2c1CCC2)NS(=O)(=O)c1cc2c(o1)C1CCN(CC1)C2` [Compound 43, N-((5-(cyclobut-1-en-1-yl)-2,3-dihydro-1H-inden-4-yl)carbamoyl)-4,6,7,8-tetrahydro-5,8-ethanofuro[3,2-c]azepine-2-sulfonamide], 1 to 10 µM; that for `CC#Cc1ccc2c(c1NC(=O)NS(=O)(=O)c1cc3c(o1)C1CCN(CC1)C3)CCC2` [Compound 44, N-((5-(prop-1-yn-1-yl)-2,3-dihydro-1H-inden-4-yl)carbamoyl)-4,6,7,8-tetrahydro-5,8-ethanofuro[3,2-c]azepine-2-sulfonamide], 1 to 10 µM.
